Patent US8192962B2, “Processes for detecting toxic substances” (Daikin Industries, Ltd., priority 2001, dated 2012)

System: Detoxification protein genes
Test: DNA chip mRNA expression in yeast, detoxification protein genes (Table 8)
Type: cell-based, Saccharomyces cerevisiae S288C
In short: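 In this screen, yeast in logarithmic growth are challenged for two hours with a toxic substance at a non-lethal inhibitory concentration. Their mRNA, converted to Cy3- or Cy5-labeled cDNA, hybridizes at 65° C. to a chip spanning every yeast gene, and expression is expressed as a ratio to untreated cells.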

CN(C)C(=S)SSC(=S)N(C)C [(10), Tetramethylthiuram disulfide]
The level of expressed mRNA in the presence of chemical substance/The level of expressed mRNA in the absence of chemical substance (yeast gene YBL064C): 3.8 | The level of expressed mRNA in the presence of chemical substance/The level of expressed mRNA in the absence of chemical substance (yeast gene YBR008C): 21.1 | The level of expressed mRNA in the presence of chemical substance/The level of expressed mRNA in the absence of chemical substance (yeast gene YBR145W): 1.1 | The level of expressed mRNA in the presence of chemical substance/The level of expressed mRNA in the absence of chemical substance (yeast gene YBR244W): 3.0 | The level of expressed mRNA in the presence of chemical substance/The level of expressed mRNA in the absence of chemical substance (yeast gene YBR293W): 2.4 | The level of expressed mRNA in the presence of chemical substance/The level of expressed mRNA in the absence of chemical substance (yeast gene YCL035C): 2.3 | The level of expressed mRNA in the presence of chemical substance/The level of expressed mRNA in the absence of chemical substance (yeast gene YCL069W): 6.9 | The level of expressed mRNA in the presence of chemical substance/The level of expressed mRNA in the absence of chemical substance (yeast gene YCR083W): 1.8 | The level of expressed mRNA in the presence of chemical substance/The level of expressed mRNA in the absence of chemical substance (yeast gene YDL100C): 3.2 | The level of expressed mRNA in the presence of chemical substance/The level of expressed mRNA in the absence of chemical substance (yeast gene YDL168W): 4.7 | The level of expressed mRNA in the presence of chemical substance/The level of expressed mRNA in the absence of chemical substance (yeast gene YDR256C): 2.0 | The level of expressed mRNA in the presence of chemical substance/The level of expressed mRNA in the absence of chemical substance (yeast gene YDR453C): 6.1 | The level of expressed mRNA in the presence of chemical substance/The level of expressed mRNA in the absence of chemical substance (yeast gene YDR513W): 3.1 | The level of expressed mRNA in the presence of chemical substance/The level of expressed mRNA in the absence of chemical substance (yeast gene YDR538W): 0.8 | The level of expressed mRNA in the presence of chemical substance/The level of expressed mRNA in the absence of chemical substance (yeast gene YEL027W): 1.1 | The level of expressed mRNA in the presence of chemical substance/The level of expressed mRNA in the absence of chemical substance (yeast gene YEL065W): 4.9 | The level of expressed mRNA in the presence of chemical substance/The level of expressed mRNA in the absence of chemical substance (yeast gene YER185W): 1.2 | The level of expressed mRNA in the presence of chemical substance/The level of expressed mRNA in the absence of chemical substance (yeast gene YFL050C): 1.6 | The level of expressed mRNA in the presence of chemical substance/The level of expressed mRNA in the absence of chemical substance (yeast gene YGL013C): 1.5 | The level of expressed mRNA in the presence of chemical substance/The level of expressed mRNA in the absence of chemical substance (yeast gene YGL254W): 1.8 | The level of expressed mRNA in the presence of chemical substance/The level of expressed mRNA in the absence of chemical substance (yeast gene YGR088W): 3.2 | The level of expressed mRNA in the presence of chemical substance/The level of expressed mRNA in the absence of chemical substance (yeast gene YGR138C): 1.0 | The level of expressed mRNA in the presence of chemical substance/The level of expressed mRNA in the absence of chemical substance (yeast gene YGR197C): 3.2 | The level of expressed mRNA in the presence of chemical substance/The level of expressed mRNA in the absence of chemical substance (yeast gene YGR209C): 6.3 | The level of expressed mRNA in the presence of chemical substance/The level of expressed mRNA in the absence of chemical substance (yeast gene YGR224W): 0.9 | The level of expressed mRNA in the presence of chemical substance/The level of expressed mRNA in the absence of chemical substance (yeast gene YHL040C): 11.3 | The level of expressed mRNA in the presence of chemical substance/The level of expressed mRNA in the absence of chemical substance (yeast gene YHL047C): 11.9 | The level of expressed mRNA in the presence of chemical substance/The level of expressed mRNA in the absence of chemical substance (yeast gene YHR008C): 2.4 | The level of expressed mRNA in the presence of chemical substance/The level of expressed mRNA in the absence of chemical substance (yeast gene YHR048W): 2.7 | The level of expressed mRNA in the presence of chemical substance/The level of expressed mRNA in the absence of chemical substance (yeast gene YHR053C): 2.9 | The level of expressed mRNA in the presence of chemical substance/The level of expressed mRNA in the absence of chemical substance (yeast gene YHR055C): 3.3 | The level of expressed mRNA in the presence of chemical substance/The level of expressed mRNA in the absence of chemical substance (yeast gene YIR002C): 1.4 | The level of expressed mRNA in the presence of chemical substance/The level of expressed mRNA in the absence of chemical substance (yeast gene YIR038C): 4.5 | The level of expressed mRNA in the presence of chemical substance/The level of expressed mRNA in the absence of chemical substance (yeast gene YJL101C): 3.6 | The level of expressed mRNA in the presence of chemical substance/The level of expressed mRNA in the absence of chemical substance (yeast gene YJR104C): 2.8 | The level of expressed mRNA in the presence of chemical substance/The level of expressed mRNA in the absence of chemical substance (yeast gene YKL026C): 3.0 | The level of expressed mRNA in the presence of chemical substance/The level of expressed mRNA in the absence of chemical substance (yeast gene YKL064W): 1.6 | The level of expressed mRNA in the presence of chemical substance/The level of expressed mRNA in the absence of chemical substance (yeast gene YKR066C): 2.4 | The level of expressed mRNA in the presence of chemical substance/The level of expressed mRNA in the absence of chemical substance (yeast gene YKR105C): 5.2 | The level of expressed mRNA in the presence of chemical substance/The level of expressed mRNA in the absence of chemical substance (yeast gene YKR106W): 7.4 | The level of expressed mRNA in the presence of chemical substance/The level of expressed mRNA in the absence of chemical substance (yeast gene YLL028W): 2.3 | The level of expressed mRNA in the presence of chemical substance/The level of expressed mRNA in the absence of chemical substance (yeast gene YLL057C): 2.9 | The level of expressed mRNA in the presence of chemical substance/The level of expressed mRNA in the absence of chemical substance (yeast gene YLL060C): 23.2 | The level of expressed mRNA in the presence of chemical substance/The level of expressed mRNA in the absence of chemical substance (yeast gene YLR043C): 2.5 | The level of expressed mRNA in the presence of chemical substance/The level of expressed mRNA in the absence of chemical substance (yeast gene YLR046C): 1.4 | The level of expressed mRNA in the presence of chemical substance/The level of expressed mRNA in the absence of chemical substance (yeast gene YML028W): 1.8 | The level of expressed mRNA in the presence of chemical substance/The level of expressed mRNA in the absence of chemical substance (yeast gene YML116W): 3.1 | The level of expressed mRNA in the presence of chemical substance/The level of expressed mRNA in the absence of chemical substance (yeast gene YMR015C): 0.3 | The level of expressed mRNA in the presence of chemical substance/The level of expressed mRNA in the absence of chemical substance (yeast gene YMR038C): 2.6 | The level of expressed mRNA in the presence of chemical substance/The level of expressed mRNA in the absence of chemical substance (yeast gene YNL239W): 6.0 | The level of expressed mRNA in the presence of chemical substance/The level of expressed mRNA in the absence of chemical substance (yeast gene YNL241C): 7.4 | The level of expressed mRNA in the presence of chemical substance/The level of expressed mRNA in the absence of chemical substance (yeast gene YNL259C): 2.1 | The level of expressed mRNA in the presence of chemical substance/The level of expressed mRNA in the absence of chemical substance (yeast gene YOL158C): 6.1 | The level of expressed mRNA in the presence of chemical substance/The level of expressed mRNA in the absence of chemical substance (yeast gene YOR031W): 1.3 | The level of expressed mRNA in the presence of chemical substance/The level of expressed mRNA in the absence of chemical substance (yeast gene YOR153W): 1.2 | The level of expressed mRNA in the presence of chemical substance/The level of expressed mRNA in the absence of chemical substance (yeast gene YOR247W): 0.4 | The level of expressed mRNA in the presence of chemical substance/The level of expressed mRNA in the absence of chemical substance (yeast gene YOR251C): 0.8 | The level of expressed mRNA in the presence of chemical substance/The level of expressed mRNA in the absence of chemical substance (yeast gene YOR273C): 0.5 | The level of expressed mRNA in the presence of chemical substance/The level of expressed mRNA in the absence of chemical substance (yeast gene YPL163C): 0.4 | The level of expressed mRNA in the presence of chemical substance/The level of expressed mRNA in the absence of chemical substance (yeast gene YPR200C): 3.8
